Measured values from US6638973B2, “Taxane formulations” (FSU Research Foundation, Inc., priority 2000, dated 2003).
Where two headings read alike, the source gives them in different places.

Tested on: HCT116 cells
Experiment: In vitro cytotoxicity measured by the cell colony formation assay
Format: cell-based
Conditions: colonies counted after 7 days, read-out: IN VITRO ID 50 (nm) HCT116
In short: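 Colony-forming survival was scored 7 days after a 72 h, 37 °C compound exposure followed by washout into fresh medium.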

[1] = HCT116 colony formation, 72 h drug incubation, Example 10, C-10 ester/C-7 hydroxy taxanes
[2] = HCT116 cells, 72 h drug incubation, ID50 = drug concentration producing 50% inhibition of colony formation
[3] = HCT116 colony formation, 72 h drug incubation, Example 5, C-7 ester/C-10 hydroxy taxanes
[4] = HCT116 cells, 72 h incubation with drug, ID50 = drug concentration producing 50% inhibition of colony formation

## C/C=C/C(=O)O[C@H]1C(=O)[C@@]2(C)C([C@H](OC(=O)c3ccccc3)[C@]3(O)C[C@H](OC(=O)[C@H](O)[C@@H](NC(=O)OC(C)(C)C)c4ccccc4)C(C)=C1C3(C)C)[C@]1(OC(C)=O)CO[C@@H]1C[C@@H]2O (stereo partly drawn) [Compound 2442]
[1]
  IC50: < 1 nM

## C/C=C/C(=O)N[C@@H](c1ccco1)[C@@H](O)C(=O)O[C@H]1C[C@@]2(O)[C@@H](OC(=O)c3ccccc3)C3[C@](C)(C(=O)[C@H](OC(=O)CC)C(=C1C)C2(C)C)[C@@H](O)C[C@H]1OC[C@@]31OC(C)=O (stereo partly drawn) [Compound 3982]
[1]
  IC50: < 1 nM

## CCC(=O)O[C@H]1C(=O)[C@@]2(C)C([C@H](OC(=O)c3ccccc3)[C@]3(O)C[C@H](OC(=O)[C@H](O)[C@@H](NC(=O)c4ccccc4)c4ccoc4)C(C)=C1C3(C)C)[C@]1(OC(C)=O)CO[C@@H]1C[C@@H]2O (stereo partly drawn) [Compound 0670]
[1]
  IC50: < 1 nM

## COCC(=O)O[C@H]1C[C@H]2OC[C@@]2(OC(C)=O)C2[C@H](OC(=O)c3ccccc3)[C@]3(O)C[C@H](OC(=O)[C@H](O)[C@@H](NC(=O)C=C(C)C)c4ccco4)C(C)=C([C@@H](O)C(=O)[C@@]21C)C3(C)C (stereo partly drawn) [Compound 5474]
HCT116 colony formation, 72 h drug incubation, Example 15, C-7 substituted acetate/C-10 hydroxy taxanes
  IC50: < 1 nM

## CC(=O)O[C@@]12CO[C@@H]1C[C@H](OC(=O)Nc1ccc(F)c(F)c1)[C@@]1(C)C(=O)[C@H](O)C3=C(C)[C@@H](OC(=O)[C@H](O)[C@@H](NC(=O)OC(C)(C)C)c4ccco4)C[C@@](O)([C@@H](OC(=O)c4ccccc4)C12)C3(C)C (stereo partly drawn) [Compound 5415]
[2]
  IC50: < 1 nM

## CCNC(=O)O[C@H]1C(=O)[C@@]2(C)C([C@H](OC(=O)c3ccccc3)[C@]3(O)C[C@H](OC(=O)[C@H](O)[C@@H](NC(=O)OC(C)(C)C)c4cccs4)C(C)=C1C3(C)C)[C@]1(OC(C)=O)CO[C@@H]1C[C@@H]2O (stereo partly drawn) [Compound 2722, 3′-Desphenyl-3′-(2-thienyl)-10-N-ethylcarbamoyl docetaxel]
HCT116 cells, colony formation, 72 h incubation with drug, ID50 = drug concentration producing 50% inhibition of colony formation
  IC50: < 1 nM

## CCC(=O)O[C@H]1C(=O)[C@@]2(C)C([C@H](OC(=O)c3ccccc3)[C@]3(O)C[C@H](OC(=O)[C@H](O)[C@@H](NC(=O)OCC(C)C)C4CC4)C(C)=C1C3(C)C)[C@]1(OC(C)=O)CO[C@@H]1C[C@@H]2O (stereo partly drawn) [Compound 4799]
[1]
  IC50: < 1 nM

## CCCC(=O)O[C@H]1C(=O)[C@@]2(C)C([C@H](OC(=O)c3ccccc3)[C@]3(O)C[C@H](OC(=O)[C@H](O)[C@@H](NC(=O)c4cccs4)c4ccco4)C(C)=C1C3(C)C)[C@]1(OC(C)=O)CO[C@@H]1C[C@@H]2O (stereo partly drawn) [Compound 3656]
[1]
  IC50: < 1 nM

## CC(=O)O[C@@]12CO[C@@H]1C[C@H](O)[C@@]1(C)C(=O)[C@H](OC(=O)C(C)C)C3=C(C)[C@@H](OC(=O)[C@H](O)[C@@H](NC(=O)OC(C)(C)C)c4ccncc4)C[C@@](O)([C@@H](OC(=O)c4ccccc4)C12)C3(C)C (stereo partly drawn) [Compound 2255]
[1]
  IC50: < 1 nM

## CCC(=O)O[C@H]1C(=O)[C@@]2(C)C([C@H](OC(=O)c3ccccc3)[C@]3(O)C[C@H](OC(=O)[C@H](O)[C@@H](NC(=O)OC(C)(C)C)C4CCC4)C(C)=C1C3(C)C)[C@]1(OC(C)=O)CO[C@@H]1C[C@@H]2O (stereo partly drawn) [Compound 0596]
[1]
  IC50: < 10 nM

## CCC(=O)O[C@H]1C[C@H]2OC[C@@]2(OC(C)=O)C2[C@H](OC(=O)c3ccccc3)[C@]3(O)C[C@H](OC(=O)[C@H](O)[C@@H](NC(=O)c4cccs4)c4cccs4)C(C)=C([C@@H](O)C(=O)[C@@]21C)C3(C)C (stereo partly drawn) [Compound 3479]
[3]
  IC50: < 1 nM

## CCCC(=O)O[C@H]1C[C@H]2OC[C@@]2(OC(C)=O)C2[C@H](OC(=O)c3ccccc3)[C@]3(O)C[C@H](OC(=O)[C@H](O)[C@@H](NC(=O)OCC(C)C)c4ccsc4)C(C)=C([C@@H](O)C(=O)[C@@]21C)C3(C)C (stereo partly drawn) [Compound 4600]
[3]
  IC50: < 10 nM

## CC(=O)OC12COC1CC(O)C1(C)C(=O)C(OC(=O)c3cccs3)C3=C(C)C(OC(=O)C(O)C(NC(=O)OC(C)(C)C)c4ccco4)CC(O)(C(OC(=O)c4ccccc4)C21)C3(C)C (stereo not drawn) [Compound 1892]
[1]
  IC50: < 1 nM

## COC(=O)O[C@H]1C[C@H]2OC[C@@]2(OC(C)=O)C2[C@H](OC(=O)c3ccccc3)[C@]3(O)C[C@H](OC(=O)[C@H](O)[C@H](C=C(C)C)NC(=O)OCC(C)C)C(C)=C([C@@H](O)C(=O)[C@@]21C)C3(C)C (stereo partly drawn) [Compound 4644]
[4]
  IC50: < 10 nM

## CCOC(=O)O[C@H]1C[C@H]2OC[C@@]2(OC(C)=O)C2[C@H](OC(=O)c3ccccc3)[C@]3(O)C[C@H](OC(=O)[C@H](O)[C@@H](NC(=O)OCC(C)C)c4cccs4)C(C)=C([C@@H](O)C(=O)[C@@]21C)C3(C)C (stereo partly drawn) [Compound 4363]
[4]
  IC50: < 10 nM

## CC(=O)OC12COC1CC(O)C1(C)C(=O)C(OC(=O)c3ccco3)C3=C(C)C(OC(=O)C(O)C(NC(=O)OC(C)(C)C)c4ccncc4)CC(O)(C(OC(=O)c4ccccc4)C21)C3(C)C (stereo not drawn) [Compound 2132]
[1]
  IC50: < 1 nM

## CCCC(=O)N[C@@H](c1cccs1)[C@@H](O)C(=O)O[C@H]1C[C@@]2(O)[C@@H](OC(=O)c3ccccc3)C3[C@](C)(C(=O)[C@H](OC(=O)CCC)C(=C1C)C2(C)C)[C@@H](O)C[C@H]1OC[C@@]31OC(C)=O (stereo partly drawn) [Compound 3314]
[1]
  IC50: < 1 nM

## C/C=C/C(=O)O[C@H]1C(=O)[C@@]2(C)C([C@H](OC(=O)c3ccccc3)[C@]3(O)C[C@H](OC(=O)[C@H](O)[C@@H](NC(=O)OC(C)(C)C)c4ccccn4)C(C)=C1C3(C)C)[C@]1(OC(C)=O)CO[C@@H]1C[C@@H]2O (stereo partly drawn) [Compound 2348]
[1]
  IC50: < 1 nM

## COC(=O)O[C@H]1C[C@H]2OC[C@@]2(OC(C)=O)C2[C@H](OC(=O)c3ccccc3)[C@]3(O)C[C@H](OC(=O)[C@H](O)[C@@H](NC(=O)OC(C)(C)C)C4CC4)C(C)=C([C@@H](O)C(=O)[C@@]21C)C3(C)C (stereo partly drawn) [Compound 4566]
[4]
  IC50: < 1 nM

## CC(=O)O[C@@]12CO[C@@H]1C[C@H](O)[C@@]1(C)C(=O)[C@H](OC(=O)C=C(C)C)C3=C(C)[C@@H](OC(=O)[C@H](O)[C@@H](NC(=O)OC(C)(C)C)c4ccco4)C[C@@](O)([C@@H](OC(=O)c4ccccc4)C12)C3(C)C (stereo partly drawn) [Compound 2488]
[1]
  IC50: < 1 nM

## CCC(=O)O[C@H]1C[C@H]2OC[C@@]2(OC(C)=O)C2[C@H](OC(=O)c3ccccc3)[C@]3(O)C[C@H](OC(=O)[C@H](O)[C@@H](NC(=O)OCC(C)C)C4CC4)C(C)=C([C@@H](O)C(=O)[C@@]21C)C3(C)C (stereo partly drawn) [Compound 5191]
[3]
  IC50: < 10 nM

## CCOC(=O)N[C@@H](c1cccs1)[C@@H](O)C(=O)O[C@H]1C[C@@]2(O)[C@@H](OC(=O)c3ccccc3)C3[C@](C)(C(=O)[C@H](OC(=O)OCC)C(=C1C)C2(C)C)[C@@H](O)C[C@H]1OC[C@@]31OC(C)=O (stereo partly drawn) [Compound 2988]
[4]
  IC50: < 1 nM

## CCCC(=O)O[C@H]1C(=O)[C@@]2(C)C([C@H](OC(=O)c3ccccc3)[C@]3(O)C[C@H](OC(=O)[C@H](O)[C@@H](NC(=O)c4ccccc4)c4cccs4)C(C)=C1C3(C)C)[C@]1(OC(C)=O)CO[C@@H]1C[C@@H]2O (stereo partly drawn) [Compound 3258]
[1]
  IC50: < 1 nM

## CCCC(=O)OC1C(=O)C2(C)C(O)CC3OCC3(OC(C)=O)C2C(OC(=O)c2ccccc2)C2(O)CC(OC(=O)C(O)C(NC(=O)OC(C)(C)C)c3ccccc3)C(C)=C1C2(C)C (stereo not drawn) [Compound 1060]
[1]
  IC50: < 1 nM

## CC=CC(=O)NC(c1ccco1)C(O)C(=O)OC1CC2(O)C(OC(=O)c3ccccc3)C3C4(OC(C)=O)COC4CC(OC(=O)Nc4ccc(F)c(F)c4)C3(C)C(=O)C(O)C(=C1C)C2(C)C (stereo not drawn) [Compound 5800]
[2]
  IC50: < 10 nM

## CCC(=O)OC1CC2OCC2(OC(C)=O)C2C(OC(=O)c3ccccc3)C3(O)CC(OC(=O)C(O)C(NC(=O)OC(C)(C)C)c4ccco4)C(C)=C(C(O)C(=O)C12C)C3(C)C (stereo not drawn) [Compound 1393, 3′-Desphenyl-3′-(2-furyl)-7-propionyl taxotere]
[3]
  IC50: < 1 nM

## CCC(=O)O[C@H]1C[C@H]2OC[C@@]2(OC(C)=O)C2[C@H](OC(=O)c3ccccc3)[C@]3(O)C[C@H](OC(=O)[C@H](O)[C@@H](NC(=O)OCC(C)C)c4ccco4)C(C)=C([C@@H](O)C(=O)[C@@]21C)C3(C)C (stereo partly drawn) [Compound 3196]
[3]
  IC50: < 10 nM

## COC(=O)O[C@H]1C(=O)[C@@]2(C)C([C@H](OC(=O)c3ccccc3)[C@]3(O)C[C@H](OC(=O)[C@H](O)[C@@H](NC(=O)OC(C)(C)C)c4ccco4)C(C)=C1C3(C)C)[C@]1(OC(C)=O)CO[C@@H]1C[C@@H]2O (stereo partly drawn) [Compound 2666]
[4]
  IC50: < 1 nM

## C/C=C/C(=O)N[C@@H](c1ccoc1)[C@@H](O)C(=O)O[C@H]1C[C@@]2(O)[C@@H](OC(=O)c3ccccc3)C3[C@](C)(C(=O)[C@H](OC(=O)C4CC4)C(=C1C)C2(C)C)[C@@H](O)C[C@H]1OC[C@@]31OC(C)=O (stereo partly drawn) [Compound 4944]
[1]
  IC50: < 1 nM

## CCC(C)(C)OC(=O)N[C@@H](c1ccco1)[C@@H](O)C(=O)O[C@H]1C[C@@]2(O)[C@@H](OC(=O)c3ccccc3)C3[C@](C)(C(=O)[C@H](O)C(=C1C)C2(C)C)[C@@H](OC(=O)Nc1ccccc1)C[C@H]1OC[C@@]31OC(C)=O (stereo partly drawn) [Compound 6399]
[2]
  IC50: < 10 nM

## C/C=C/C(=O)O[C@H]1C(=O)[C@@]2(C)C([C@H](OC(=O)c3ccccc3)[C@]3(O)C[C@H](OC(=O)[C@H](O)[C@@H](NC(=O)OC(C)(C)C)c4ccoc4)C(C)=C1C3(C)C)[C@]1(OC(C)=O)CO[C@@H]1C[C@@H]2O (stereo partly drawn) [Compound 2380]
[1]
  IC50: < 1 nM

## CCOC(=O)O[C@H]1C(=O)[C@@]2(C)C([C@H](OC(=O)c3ccccc3)[C@]3(O)C[C@H](OC(=O)[C@H](O)[C@@H](NC(=O)OCC(C)C)c4ccoc4)C(C)=C1C3(C)C)[C@]1(OC(C)=O)CO[C@@H]1C[C@@H]2O (stereo partly drawn) [Compound 4636]
[4]
  IC50: < 10 nM

## CCCC(=O)O[C@H]1C(=O)[C@@]2(C)C([C@H](OC(=O)c3ccccc3)[C@]3(O)C[C@H](OC(=O)[C@H](O)[C@@H](NC(=O)OC(C)(C)C)c4ccccn4)C(C)=C1C3(C)C)[C@]1(OC(C)=O)CO[C@@H]1C[C@@H]2O (stereo partly drawn) [Compound 0951]
[1]
  IC50: < 1 nM
